Data taken from patent US20240270740A1, “INHIBITORS OF CYCLIC GMP-AMP SYNTHASE AND USES THEREOF” (Ventus Therapeutics U.S., Inc., priority 2022, published 2024).

molecular target: hcGAS (Homo sapiens, UniProt Q8N884); assay: hcGAS LCMS assay (direct measurement of cGAMP production); assay type: biochemical; conditions: 0.5 nM hcGAS, 100 μM ATP, 100 μM GTP, 25 nM dsDNA, 4 h incubation
Method in brief: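 Direct LC/MS readout of cGAMP formed: 4-h enzyme–substrate incubation with compound, stopped by acetonitrile/water quench carrying isotope-labelled cGAMP (0.15 mM) as standard. Potency reported as IC50 ranges.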

Sequence of hcGAS (Q8N884 whole entry): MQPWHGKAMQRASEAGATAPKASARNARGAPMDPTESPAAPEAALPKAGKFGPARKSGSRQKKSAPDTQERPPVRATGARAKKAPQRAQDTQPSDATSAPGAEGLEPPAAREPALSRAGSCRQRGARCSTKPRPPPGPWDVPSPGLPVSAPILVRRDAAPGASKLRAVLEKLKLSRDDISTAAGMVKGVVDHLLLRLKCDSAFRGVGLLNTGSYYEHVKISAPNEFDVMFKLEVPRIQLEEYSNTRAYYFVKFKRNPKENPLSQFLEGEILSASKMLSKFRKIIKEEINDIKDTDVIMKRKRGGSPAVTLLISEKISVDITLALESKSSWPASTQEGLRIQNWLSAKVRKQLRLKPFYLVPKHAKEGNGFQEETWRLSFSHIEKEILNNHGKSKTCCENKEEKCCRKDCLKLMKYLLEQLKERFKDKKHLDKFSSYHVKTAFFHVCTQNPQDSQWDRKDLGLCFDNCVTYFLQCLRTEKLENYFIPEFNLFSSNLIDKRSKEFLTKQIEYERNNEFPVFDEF

IC50 | Molecule
< 5 nM | COCC(COC)Nc1cc(C(=O)Nc2nnc(-c3c(Cl)ccn3C)s2)oc(=O)c1OC [Compound 84, N-(5-(3-chloro-1-methyl-1H-pyrrol-2-yl)-1,3,4-thiadiazol-2-yl)-4-((1,3-dimethoxypropan-2-yl)amino)-3-methoxy-2-oxo-2H-pyran-6-carboxamide]
5 to 20 nM | COc1c(NC23CC(O)(C2)C3)cc(C(=O)Nc2nnc(-n3nccc3C)s2)oc1=O [Compound 126, 4-((3-hydroxybicyclo[1.1.1]pentan-1-yl)amino)-3-methoxy-N-(5-(5-methyl-1H-pyrazol-1-yl)-1,3,4-thiadiazol-2-yl)-2-oxo-2H-pyran-6-carboxamide]
< 5 nM | COCCOc1c(N[C@@H](COC)c2ccccc2)cc(C(=O)Nc2nnc(-n3nccc3C)s2)oc1=O [Compound 200, (R)-4-((2-Methoxy-1-phenylethyl)amino)-3-(2-methoxyethoxy)-N-(5-(5-methyl-1H-pyrazol-1-yl)-1,3,4-thiadiazol-2-yl)-2-oxo-2H-pyran-6-carboxamide]
5 to 20 nM | COCCOc1c(N[C@H]2CCC[C@H]2O)cc(C(=O)Nc2nnc(-c3c(Cl)ccn3C)s2)oc1=O [Compound 85, N-(5-(3-chloro-1-methyl-1H-pyrrol-2-yl)-1,3,4-thiadiazol-2-yl)-4-(((1S,2R)-2-hydroxycyclopentyl)amino)-3-(2-methoxyethoxy)-2-oxo-2H-pyran-6-carboxamide]
5 to 20 nM | COc1c(NC23COC(C2)C3)cc(C(=O)Nc2nnc(-n3nccc3C)s2)oc1=O [Compound 51, 4-((2-oxabicyclo[2.1.1]hexan-4-yl)amino)-3-methoxy-N-(5-(5-methyl-1H-pyrazol-1-yl)-1,3,4-thiadiazol-2-yl)-2-oxo-2H-pyran-6-carboxamide]
5 to 20 nM | COc1c(N[C@H]2CCC[C@@H]2OC)cc(C(=O)Nc2nnc(-n3nccc3C)s2)oc1=O (single isomer, unassigned) [4*]
< 5 nM | COc1c(N[C@@H]2CCC[C@@H]2C#N)cc(C(=O)Nc2nnc(-n3nccc3C)s2)oc1=O (single isomer, unassigned) [Compound 73]
20 to 60 nM | COc1c(N2C[C@H](OC)CC2=O)cc(C(=O)Nc2nnc(-n3nccc3C)s2)oc1=O [Compound 154, (R)-3-methoxy-4-(4-methoxy-2-oxopyrrolidin-1-yl)-N-(5-(5-methyl-1H-pyrazol-1-yl)-1,3,4-thiadiazol-2-yl)-2-oxo-2H-pyran-6-carboxamide]
≥ 200 nM | 4-(((1S,2R)-2-(hydroxymethyl)cyclopentyl)amino)-3-methoxy-N-(5-(5-methyl-1H-pyrazol-1-yl)-1,3,4-thiadiazol-2-yl)-2-oxo-2H-pyran-6-carboxamide [Rac-55]
20 to 60 nM | COc1c(NC23CC(C2)C3)cc(C(=O)Nc2nnc(-n3nccc3N)s2)oc1=O [Compound 178, N-(5-(5-amino-1H-pyrazol-1-yl)-1,3,4-thiadiazol-2-yl)-4-(bicyclo[1.1.1]pentan-1-ylamino)-3-methoxy-2-oxo-2H-pyran-6-carboxamide]
≥ 200 nM | COc1c(N[C@@H]2c3ccccc3C[C@@H]2O)cc(C(=O)Nc2nnc(-n3nccc3C)s2)oc1=O (racemic) [Rac-28, 4-(((cis)-2-hydroxy-2,3-dihydro-1H-inden-1-yl)amino)-3-methoxy-N-(5-(5-methyl-1H-pyrazol-1-yl)-1,3,4-thiadiazol-2-yl)-2-oxo-2H-pyran-6-carboxamide]
5 to 20 nM | COc1c(N[C@H]2CCC[C@H]2OCC(F)F)cc(C(=O)Nc2nnc(-n3nccc3C)s2)oc1=O [Compound 206, 4-(((1S,2R)-2-(2,2-difluoroethoxy)cyclopentyl)amino)-3-methoxy-N-(5-(5-methyl-1H-pyrazol-1-yl)-1,3,4-thiadiazol-2-yl)-2-oxo-2H-pyran-6-carboxamide]
5 to 20 nM | COc1c(N[C@H]2CCN(C)C2=O)cc(C(=O)Nc2nnc(-n3nccc3C)s2)oc1=O (single isomer, unassigned) [71*]
< 5 nM | Nc1ccnn1-c1nnc(NC(=O)c2cc(NC34CC(C3)C4)c(OCCO)c(=O)o2)s1 [Compound 177, N-(5-(5-amino-1H-pyrazol-1-yl)-1,3,4-thiadiazol-2-yl)-4-(bicyclo[1.1.1]pentan-1-ylamino)-3-(2-hydroxyethoxy)-2-oxo-2H-pyran-6-carboxamide]
20 to 60 nM | COC[C@@H](Nc1cc(C(=O)Nc2nnc(-n3nccc3C)s2)oc(=O)c1OC)c1ccccc1 [Compound 49, (S)-3-methoxy-4-((2-methoxy-1-phenylethyl)amino)-N-(5-(5-methyl-1H-pyrazol-1-yl)-1,3,4-thiadiazol-2-yl)-2-oxo-2H-pyran-6-carboxamide]
5 to 20 nM | COc1c(N2C[C@@H](OC)CC2=O)cc(C(=O)Nc2nnc(-n3nccc3C)s2)oc1=O [Compound 155, (S)-3-methoxy-4-(4-methoxy-2-oxopyrrolidin-1-yl)-N-(5-(5-methyl-1H-pyrazol-1-yl)-1,3,4-thiadiazol-2-yl)-2-oxo-2H-pyran-6-carboxamide]
< 5 nM | COc1c(N[C@H](C)[C@H](C)OC)cc(C(=O)Nc2nnc(-n3nccc3C)s2)oc1=O [Compound 166, 3-methoxy-4-(((2R,3S)-3-methoxybutan-2-yl)amino)-N-(5-(5-methyl-1H-pyrazol-1-yl)-1,3,4-thiadiazol-2-yl)-2-oxo-2H-pyran-6-carboxamide]
5 to 20 nM | COc1c(N[C@H]2CCC[C@H]2OC)cc(C(=O)Nc2nnc(-n3nccc3C)s2)oc1=O (single isomer, unassigned) [214*]
≥ 200 nM | COCCNc1cc(C(=O)Nc2nnc(-c3cscc3C#N)s2)oc(=O)c1OC [Compound 138, N-[5-(4-cyanothiophen-3-yl)-1,3,4-thiadiazol-2-yl]-5-methoxy-4-[(2-methoxyethyl)amino]-6-oxopyran-2-carboxamide]
5 to 20 nM | COc1c(N[C@H]2CCC[C@H]2OC(F)F)cc(C(=O)Nc2nnc(-n3nccc3C)s2)oc1=O [Compound 212, 4-(((1S,2R)-2-(difluoromethoxy)cyclopentyl)amino)-3-methoxy-N-(5-(5-methyl-1H-pyrazol-1-yl)-1,3,4-thiadiazol-2-yl)-2-oxo-2H-pyran-6-carboxamide]
5 to 20 nM | COC[C@H]1CC[C@H](COC)N1c1cc(C(=O)Nc2nnc(-n3nccc3C)s2)oc(=O)c1OC (racemic) [Rac-209, 4-((trans)-2,5-bis(methoxymethyl)pyrrolidin-1-yl)-3-methoxy-N-(5-(5-methyl-1H-pyrazol-1-yl)-1,3,4-thiadiazol-2-yl)-2-oxo-2H-pyran-6-carboxamide]
< 5 nM | COC[C@@H](c1ccccc1)N1CCOc2c1cc(C(=O)Nc1nnc(-n3nccc3C)s1)oc2=O [Compound 227, (R)-1-(2-methoxy-1-phenylethyl)-N-(5-(5-methyl-1H-pyrazol-1-yl)-1,3,4-thiadiazol-2-yl)-5-oxo-1,2,3,5-tetrahydropyrano[3,4-b][1,4]oxazine-7-carboxamide]
5 to 20 nM | COc1c(N(C)[C@@H]2CCC[C@@H]2OC)cc(C(=O)Nc2nnc(-n3nccc3C)s2)oc1=O (racemic) [Rac-153, 3-methoxy-4-(((cis)-2-methoxycyclopentyl)(methyl)amino)-N-(5-(5-methyl-1H-pyrazol-1-yl)-1,3,4-thiadiazol-2-yl)-2-oxo-2H-pyran-6-carboxamide]
